Source: patent publication US8143282B2, “Heterocyclic compounds” (S*BIO Pte Ltd., priority 2005, dated 2012)

Tests used:
Colo205 cells = assay: Cell-based proliferation assay for GI50 (CyQUANT), Colo205; conditions: Homo sapiens, COLO 205, 96 h treatment, read-out: Cellular or Growth Inhibition Activity in Colo205 cells, GI50
Description: Human colon cancer cell lines (Colo205, HCT116), Ovarian cancer cell line (A2780), Hepatoma cell line (HEP3B), Prostate cancer cell line (PC3) were obtained from ATCC or ECACC. Colo205 cells were cultivated in RPMI 1640 containing 2 mM L-Glutamine, 5% FBS, 1.0 mM Na Pyruvate, 1 U/ml of penicillin and 1 μg of streptomycin. HCT116 cells were cultivated in McCoy's containing RPMI 1640 containing 2 mM L-Glutamine, 5% FBS, 1 U/ml of penicillin and 1 μg of streptomycin. A2780 cells were cultivated in RPMI 1640 containing 2 mM L-Glutamine, 5% FBS, 1 U/ml of penicillin and 1 μg of streptomycin. HEP3B cells were cultivated in EMEM containing 2 mM L-glutamine, 5% FBS, 1% non essential amino acid, 1 mM Na Pyruvate, 1 U/ml of penicillin and 1 μg of streptomycin. PC3 cells were cultivated in F12K, 2 mM L-glutamine, 5% FBS, 1 U/ml of penicillin and 1 μg of streptomycin. PC3, Colo205, and HCT116 cells were seeded in 96-wells plate at 1000, 5000 and 6000 cells per well respectively. A2780 and HEP3B cells were seeded in 96-wells plate at 4000 cells per well respectively. The plates were incubated at 37° C., 5% CO2, for 24 h. Cells were treated with compounds at various concentrations for 96 h. Cell growth was then monitored using CyQUANT® cell proliferation assay (Invitrogen Pte Ltd). Dose response curves were plotted to determine GI50 values for the compounds using XL-fit (ID Business Solution, Emeryville, Calif.). GI50 is defined as the concentration of compound required for 50% inhibition of cell growth.

HDAC1 enzyme = biological target: T1, HDAC1 enzyme (Homo sapiens, UniProt Q13547); assay: In vitro HDAC assay for determination of IC50 values (BIOMOL fluorescent-based HDAC activity assay); format: biochemical
T1 construct: Amplification of human HDAC1 coding region from this cDNA library was cloned separately into the baculovirus expression pDEST20 vector; made in house; host or cells: SF9 insect cells, pDEST20-HDAC1 baculovirus
T1 sequence (Q13547 whole entry): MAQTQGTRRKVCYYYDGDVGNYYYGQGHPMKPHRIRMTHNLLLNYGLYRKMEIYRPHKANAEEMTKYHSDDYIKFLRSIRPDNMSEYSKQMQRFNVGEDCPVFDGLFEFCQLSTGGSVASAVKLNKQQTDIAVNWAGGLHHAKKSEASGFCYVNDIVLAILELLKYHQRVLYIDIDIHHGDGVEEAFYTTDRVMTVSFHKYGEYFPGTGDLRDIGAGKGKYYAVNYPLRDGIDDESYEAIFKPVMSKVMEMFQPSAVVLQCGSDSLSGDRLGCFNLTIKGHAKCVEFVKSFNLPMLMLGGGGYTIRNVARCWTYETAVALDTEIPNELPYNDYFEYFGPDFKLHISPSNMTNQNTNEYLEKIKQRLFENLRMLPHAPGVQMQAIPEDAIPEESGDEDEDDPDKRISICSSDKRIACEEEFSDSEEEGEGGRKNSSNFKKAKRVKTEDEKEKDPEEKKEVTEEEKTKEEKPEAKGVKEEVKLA
Description: Human cDNA library was prepared using cultured SW620 cells. Amplification of human HDAC1 coding region from this cDNA library was cloned separately into the baculovirus expression pDEST20 vector (GATEWAY Cloning Technology, Invitrogen Pte Ltd). The pDEST20-HDAC1 construct was confirmed by DNA sequencing. Recombinant baculovirus was prepared using the Bac-To-Bac method following the manufacturer's instruction (Invitrogen Pte Ltd).
Expression of GST-HDAC1 was done by infecting SF9 cells (Invitrogen Pte Ltd) with pDEST20-HDAC1 baculovirus at MOI=1 for 48 h. Soluble cell lysate was incubated with pre-equilibrated Glutathione Sepharose 4B beads (Amersham) at 4° C. for 2 h. The beads were washed with PBS buffer for 3 times. The GST-HDAC1 protein was eluted by elution buffer containing 50 mM Tris, pH8.0, 150 mM NaCl, 1% Triton X-100 and 10 mM or 20 mM reduced Glutathione. The purified GST-HDAC1 protein was dialyzed with HDAC storage buffer containing 10 mM Tris, pH7.5, 100 mM NaCl and 3 mM MgCl2. 20% Glycerol was added to purified GST-HDAC1 protein before storage at −80° C.
The assay has been carried out in 96 well format and the BIOMOL fluorescent-based HDAC activity assay has been applied. […] Flur de lys Developer was added and the reaction was incubated for 10 min. Briefly, deacetylation of the substrate sensitizes it to the developer, which then generates a fluorophore. The fluorophore is excited with 360 nm light and the emitted light (460 nm) is detected on a fluorometric plate reader (Tecan Ultra Microplate detection system, Tecan Group Ltd.).
The analytical software, Prism 4.0 (GraphPad Software Inc) has been used to generate IC50 from a series of data.

Structure (SMILES)	GI50 (Colo205 cells)	IC50 (HDAC1 enzyme)
CC(C)NCCCn1c(CC(C)(C)C)nc2cc(/C=C/C(=O)NO)ccc21 [Compound 33, 3-[2-(2,2-Dimethyl-propyl)-1-(3-isopropylamino-propyl)-1H-benzoimidazol-5-yl]-N-hydroxy-acrylamide]	2110 nM	230 nM
CC(C)(C)CCN1CCC(n2cnc3cc(/C=C/C(=O)NO)ccc32)CC1 [Compound 104, (E)-3-(1-(1-(3,3-dimethylbutyl)piperidin-4-yl)-1H-benzo[d]imidazol-5-yl)-N-hydroxyacrylamide]	1990 nM	410 nM
CC(C)(C)CCN(CCn1cnc2cc(/C=C/C(=O)NO)ccc21)CC(F)(F)F [Compound 137, 3-(1-{2-[(3,3-Dimethyl-butyl)-(2,2,2-trifluoro-ethyl)-amino]-ethyl}-1H-benzoimidazol-5-yl)-N-hydroxy-acrylamide]	1970 nM	93 nM
CSCCc1nc2cc(/C=C/C(=O)NO)ccc2n1CC(C)(C)CN(C)C [Compound 4, 3-[1-(3-Dimethylamino-2,2-dimethyl-propyl)-2-(2-methylsulfanyl-ethyl)-1H-benzoimidazol-5-yl]-N-hydroxy-acrylamide]	2620 nM	120 nM
CC/C=C\CCc1nc2cc(/C=C/C(=O)NO)ccc2n1CCN(C(C)C)C(C)C [Compound 27, 3-[1-(2-Diisopropylamino-ethyl)-2-hex-3-enyl-1H-benzoimidazol-5-yl]-N-hydroxy-acrylamide]	1420 nM	230 nM
CCCCc1nc2cc(/C=C/C(=O)NO)ccc2n1C1CCN(Cc2ccccc2)CC1 [Compound 48, 3-[1-(1-Benzyl-piperidin-4-yl)-2-butyl-1H-benzoimidazol-5-yl]-N-hydroxy-acrylamide]	780 nM	430 nM
CN(C)CCn1c(CC(F)(F)F)nc2cc(/C=C/C(=O)NO)ccc21 [Compound 66, 3-[1-(2-Dimethylamino-ethyl)-2-(2,2,2-trifluoro-ethyl)-1H-benzoimidazol-5-yl]-N-hydroxy-acrylamide]	8800 nM	340 nM
CC(C)N(CCn1c(CCC(F)(F)F)nc2cc(/C=C/C(=O)NO)ccc21)C(C)C [Compound 34, 3-[1-(2-Diisopropylamino-ethyl)-2-(3,3,3-trifluoro-propyl)-1H-benzoimidazol-5-yl]-N-hydroxy-acrylamide]	4400 nM	880 nM
CCCCN1CCCC(n2cnc3cc(/C=C/C(=O)NO)ccc32)C1 (stereo not drawn) [Compound 102, (E)-3-(1-(1-butylpiperidin-3-yl)-1H-benzo[d]imidazol-5-yl)-N-hydroxyacrylamide]	2080 nM	540 nM
CCN(CC)CCn1cnc2cc(/C=C/C(=O)NO)ccc21 [Compound 100, (E)-3-(1-(2-(diethylamino)ethyl)-1H-benzo[d]imidazol-5-yl)-N-hydroxyacrylamide]	2250 nM	190 nM
CCN(CC)CCn1c(CNC(=O)C(C)(C)C)nc2cc(/C=C/C(=O)NO)ccc21 [Compound 61, 3-{1-(2-Diethylamino-ethyl)-2-[(2,2-dimethyl-propionylamino)-methyl]-1H-benzoimidazol-5-yl}-N-hydroxy-acrylamide]	1320 nM	70 nM
CCCN(CCn1cnc2cc(/C=C/C(=O)NO)ccc21)CC(C)(C)C [Compound 134, 3-(1-{2-[(2,2-Dimethyl-propyl)-propyl-amino]-ethyl}-1H-benzoimidazol-5-yl)-N-hydroxy-acrylamide]	2300 nM	220 nM
CCN(CC)CCn1c(CCCCCC#N)nc2cc(/C=C/C(=O)NO)ccc21 [Compound 110, 3-[2-(5-Cyano-pentyl)-1-(2-diethylamino-ethyl)-1H-benzoimidazol-5-yl]-N-hydroxy-acrylamide]	1740 nM	44 nM
CCCNc1nc2cc(/C=C/C(=O)NO)ccc2n1CCN(CC)CC [Compound 105, 3-[1-(2-Diethylamino-ethyl)-2-propylamino-1H-benzoimidazol-5-yl]-N-hydroxy-acrylamide]	1770 nM	130 nM
CCCCCc1nc2cc(/C=C/C(=O)NO)ccc2n1CCN(CC)CCCO [Compound 92, 3-(1-{2-[Ethyl-(3-hydroxy-propyl)-amino]-ethyl}-2-pentyl-1H-benzoimidazol-5-yl)-N-hydroxy-acrylamide]	1820 nM	50 nM
CCCCc1nc2cc(/C=C/C(=O)NO)ccc2n1CCN(CC)CCCO [Compound 91, 3-(2-Butyl-1-{2-[ethyl-(3-hydroxy-propyl)-amino]-ethyl}-1H-benzoimidazol-5-yl)-N-hydroxy-acrylamide]	2400 nM	60 nM

More lines, in order of falling GI50 (Colo205 cells), values ahead:

GI50 (Colo205 cells)	IC50 (HDAC1 enzyme)	Structure (SMILES)
1070 nM	100 nM	CCCCCCN(CC)CCn1cnc2cc(/C=C/C(=O)NO)ccc21 [Compound 87, 3-{1-[2-(Ethyl-hexyl-amino)-ethyl]-1H-benzoimidazol-5-yl}-N-hydroxy-acrylamide]
1050 nM	100 nM	CC(C)NCCn1c(CCC(F)(F)F)nc2cc(/C=C/C(=O)NO)ccc21 [Compound 53, N-Hydroxy-3-[1-(2-isopropylamino-ethyl)-2-(3,3,3-trifluoro-propyl)-1H-benzoimidazol-5-yl]-acrylamide]
700 nM	100 nM	CCCCCCN(CC)CCn1c(C)nc2cc(/C=C/C(=O)NO)ccc21 [Compound 116, 3-{1-[2-(Ethyl-hexyl-amino)-ethyl]-2-methyl-1H-benzoimidazol-5-yl}-N-hydroxy-acrylamide]
680 nM	160 nM	CC(C)CN(CCn1cnc2cc(/C=C/C(=O)NO)ccc21)CC(C)C [Compound 125, (E)-3-(1-(2-(diisobutylamino)ethyl)-1H-benzo[d]imidazol-5-yl)-N-hydroxyacrylamide]
560 nM	72 nM	CC(C)(C)CNCCn1cnc2cc(/C=C/C(=O)NO)ccc21 [Compound 133, 3-{1-[2-(2,2-Dimethyl-propylamino)-ethyl]-1H-benzoimidazol-5-yl}-N-hydroxy-acrylamide]
540 nM	53 nM	CCN(CC)CCn1c(CCSC)nc2cc(/C=C/C(=O)NO)ccc21 [Compound 45, 3-[1-(2-Diethylamino-ethyl)-2-(2-methylsulfanyl-ethyl)-1H-benzoimidazol-5-yl]-N-hydroxy-acrylamide]
460 nM	48 nM	CC/C=C\CCc1nc2cc(/C=C/C(=O)NO)ccc2n1CCN(C)C [Compound 54, 3-[1-(2-Dimethylamino-ethyl)-2-hex-3-enyl-1H-benzoimidazol-5-yl]-N-hydroxy-acrylamide]
420 nM	42 nM	CC(C)(C)CCNCCn1cnc2cc(/C=C/C(=O)NO)ccc21 [Compound 126, 3-{1-[2-(3,3-Dimethyl-butylamino)-ethyl]-1H-benzoimidazol-5-yl}-N-hydroxy-acrylamide]
260 nM	74 nM	CCc1nc2cc(/C=C/C(=O)NO)ccc2n1CCNCCC(C)(C)C [Compound 135, 3-{1-[2-(3,3-Dimethyl-butylamino)-ethyl]-2-ethyl-1H-benzoimidazol-5-yl}-N-hydroxy-acrylamide]
150 nM	37 nM	CN(CCn1cnc2cc(/C=C/C(=O)NO)ccc21)CCC(C)(C)C [Compound 122, 3-(1-{2-[(3,3-Dimethyl-butyl)-methyl-amino]-ethyl}-1H-benzoimidazol-5-yl)-N-hydroxy-acrylamide]
140 nM	31 nM	CCCN(CCn1cnc2cc(/C=C/C(=O)NO)ccc21)CCC(C)(C)C [Compound 128, 3-(1-{2-[(3,3-Dimethyl-butyl)-propyl-amino]-ethyl}-1H-benzoimidazol-5-yl)-N-hydroxy-acrylamide]
